According to publication PMC8234620, “An Integrated Peptidomics and In Silico Approach to Identify Novel Anti-Diabetic Peptides in Parmigiano-Reggiano Cheese” (Biology, 2021):

Assays:
[1] = parameters: method as in BIOPEP database and Milk Bioactive Peptides Database; conditions: ref BIOPEP database and Milk Bioactive Peptides Database; cited from earlier work
[2] = parameters: method as in BIOPEP database and Milk Bioactive Peptides Database; conditions: ref BIOPEP database and Milk Bioactive Peptides Database; cited from earlier work; remark: listed apart in the source
[3] = system: Staphylococcus aureus, Streptococcus pyogenes, and Listeria monocytogenes; parameters: method as in PMID 8603791; conditions: mice; ref [50]; cited from earlier work
[4] = system: angiotensin converting enzyme; conditions: cited from earlier work
[5] = parameters: method as in BIOPEP database and Milk Bioactive Peptides Database; conditions: ref BIOPEP database and Milk Bioactive Peptides Database; cited from earlier work; remark: listed apart in the source
[6] = parameters: method as in BIOPEP database and Milk Bioactive Peptides Database; conditions: ref BIOPEP database and Milk Bioactive Peptides Database; cited from earlier work; remark: listed apart in the source
[7] = parameters: method as in PMID 27572703, PMID 33337010; conditions: mild hypertensive subjects; ref [47],[58]; cited from earlier work
[8] = biological target: T1, porcine pancreatic α-amylase (Sus scrofa, UniProt P00690); assay: α-Amylase assay; assay type: biochemical; conditions: synthetic peptides; n.a. = not active
T1 sequence (P00690 16-511): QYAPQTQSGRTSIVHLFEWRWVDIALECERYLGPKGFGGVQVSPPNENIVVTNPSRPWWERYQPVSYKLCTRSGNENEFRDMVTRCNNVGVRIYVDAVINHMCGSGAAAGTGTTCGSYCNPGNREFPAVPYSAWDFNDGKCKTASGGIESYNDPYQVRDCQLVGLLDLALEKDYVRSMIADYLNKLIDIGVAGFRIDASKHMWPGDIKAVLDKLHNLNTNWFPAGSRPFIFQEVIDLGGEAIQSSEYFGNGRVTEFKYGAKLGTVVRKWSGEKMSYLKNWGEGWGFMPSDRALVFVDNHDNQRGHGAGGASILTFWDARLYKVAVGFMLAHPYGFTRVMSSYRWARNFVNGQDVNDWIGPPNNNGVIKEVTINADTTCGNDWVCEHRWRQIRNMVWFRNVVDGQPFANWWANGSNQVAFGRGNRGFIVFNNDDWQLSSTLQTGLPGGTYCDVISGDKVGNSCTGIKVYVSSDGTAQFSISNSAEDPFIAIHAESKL
Procedure: α-Amylase assay was performed in accordance with McDougall et al. adapted to a microplate reader. For the reaction, 5 μL of 2 U/mL of porcine pancreatic α-amylase (dissolved in sodium phosphate buffer 20 mmol/L pH 6.9 containing 6.7 mmol/L NaCl) were mixed with 45 μL of sodium phosphate buffer or different concentrations of water-soluble low-molecular weight peptide extracts. The mixture was incubated at 37 °C for 20 min before adding 50 μL of 1% starch solution. The reaction was carried out at 37 °C for 10 min and stopped by the addition of dinitrosalicylic acid solution, followed by 15 min boiling in a water bath. After the addition of 450 μL of water, 200 μL of solution was transferred in a 96-well plate and the absorbance was read at 540 nm. Results were expressed as IC50, namely the peptides concentration (expressed in mg/mL) able to inhibit the enzymatic activity by 50%. The IC50 values were calculated by plotting the peptide concentration (base-10 logarithm) as a function of the percentage of enzyme inhibition.
(§1) Selected peptides were then synthesized (Bio-Fab Research, Rome, Italy) and tested for their inhibitory activity against DPP-IV, α-glucosidase, and α-amylase. The assays were carried out as reported in Section 2.3. The results were expressed as IC50 values.

[9] = biological target: yeast α-glucosidase (Saccharomyces cerevisiae, UniProt P53341); assay: α-Glucosidase assay; assay type: biochemical; conditions: synthetic peptides; n.a. = not active
Sequence of yeast α-glucosidase (P53341 whole entry): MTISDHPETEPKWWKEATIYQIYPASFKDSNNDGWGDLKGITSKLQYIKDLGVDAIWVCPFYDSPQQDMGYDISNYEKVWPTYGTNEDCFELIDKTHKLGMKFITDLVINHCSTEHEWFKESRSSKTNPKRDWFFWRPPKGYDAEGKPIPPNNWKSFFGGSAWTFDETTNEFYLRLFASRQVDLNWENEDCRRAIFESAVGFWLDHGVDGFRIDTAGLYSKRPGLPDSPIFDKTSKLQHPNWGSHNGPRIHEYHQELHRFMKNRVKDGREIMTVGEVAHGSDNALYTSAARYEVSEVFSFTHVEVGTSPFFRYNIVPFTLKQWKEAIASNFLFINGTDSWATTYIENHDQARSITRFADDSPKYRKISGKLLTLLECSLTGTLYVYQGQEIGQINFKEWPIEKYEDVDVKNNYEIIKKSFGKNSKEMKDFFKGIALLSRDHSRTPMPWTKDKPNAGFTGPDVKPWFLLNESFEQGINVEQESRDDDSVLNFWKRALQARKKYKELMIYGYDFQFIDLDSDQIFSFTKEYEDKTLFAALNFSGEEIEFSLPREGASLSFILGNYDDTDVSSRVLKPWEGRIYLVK
Procedure: α-Glucosidase assay was performed as reported in Bellesia et al., adapted to a microplate reader. The reaction was performed by mixing 66.7 μL of potassium phosphate buffer (67 mmol/L, pH 6.8), 3.3 μL of glutathione 3 mmol/L, 20 μL of different concentrations of water-soluble low-molecular weight peptide extracts, and 5 μL of yeast α-glucosidase 0.2 U/mL. After 20 min of incubation at 37 °C, the reaction was started by the addition of 5 μL of p-nitrophenyl-glucose 5 mmol/L. After a further 20 min of incubation at 37 °C, the reaction was stopped by the addition of 150 μL of Na2CO3 100 mmol/L. The amount of released p-nitrophenol was determined by reading at 405 nm with a microplate reader. Results were expressed as IC50 as reported above.
as §1

[10] = biological target: T2, rat intestinal DPP-IV (Rattus norvegicus, UniProt P14740); assay: Dipeptidyl peptidase IV (DPP-IV) assay; assay type: biochemical; conditions: synthetic peptides
T2 construct: 10 μL of rat intestinal DPP-IV (0.1 U/mL in the assay); from tissue; host or cells: rat intestine
T2 sequence (P14740 whole entry): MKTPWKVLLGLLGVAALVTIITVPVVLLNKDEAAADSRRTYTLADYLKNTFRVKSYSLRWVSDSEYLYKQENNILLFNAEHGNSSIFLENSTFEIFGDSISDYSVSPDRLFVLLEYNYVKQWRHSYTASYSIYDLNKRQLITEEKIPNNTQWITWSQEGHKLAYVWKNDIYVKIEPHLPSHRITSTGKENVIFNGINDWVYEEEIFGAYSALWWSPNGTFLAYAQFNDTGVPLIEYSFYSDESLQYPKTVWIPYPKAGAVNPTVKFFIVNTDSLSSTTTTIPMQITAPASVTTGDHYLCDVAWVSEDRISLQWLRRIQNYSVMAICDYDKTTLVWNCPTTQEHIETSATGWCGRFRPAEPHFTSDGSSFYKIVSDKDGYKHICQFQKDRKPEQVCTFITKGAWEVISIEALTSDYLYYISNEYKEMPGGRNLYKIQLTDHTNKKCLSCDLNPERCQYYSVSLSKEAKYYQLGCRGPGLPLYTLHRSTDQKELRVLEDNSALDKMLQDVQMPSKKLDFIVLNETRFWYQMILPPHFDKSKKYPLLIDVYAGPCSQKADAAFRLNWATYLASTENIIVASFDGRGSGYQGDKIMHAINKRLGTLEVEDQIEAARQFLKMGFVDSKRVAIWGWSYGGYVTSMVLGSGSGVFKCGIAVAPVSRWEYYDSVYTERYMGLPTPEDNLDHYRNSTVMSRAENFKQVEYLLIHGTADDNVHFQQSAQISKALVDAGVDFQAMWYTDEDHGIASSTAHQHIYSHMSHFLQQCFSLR
Procedure: DPP-IV assay was performed as described in Tagliazucchi et al.. Briefly, in a 96-well plate, 10 μL of rat intestinal DPP-IV (0.1 U/mL in the assay) were mixed with 145 μL of Tris-HCl buffer (pH 7.0; 0.1 mol/L) and 40 μL of different concentrations of water-soluble low-molecular weight peptide extracts. After 20 min of incubation at 37 °C, the reaction was started by the addition of 5 μL of glycine-proline-p-nitroanilide (6.4 mmol/L). The amount of released p-nitroanilide was determined after 20 min of incubation at 37 °C by reading at 405 nm in a microplate reader. Results were expressed as IC50 as reported above.
as §1

In the case of “RPKHPIKHQGLPQEVLNENLLRF [αS1-casein f(1–23), anti-microbial peptide isracidin]”, the “Bioactivity: Anti-microbial” value [1] is given as “Anti-microbial”, the “Bioactivity: Immunomodulation” value [2] is given as “Immunomodulation” and the “in vivo anti-microbial effect” value [3] is given as “protecting mice”.
For VPP, the “Bioactivity: ACE-inhibition” value ([4]; ref BIOPEP database and Milk Bioactive Peptides Database) is given as “ACE-inhibition”, the “IC50 values against ACE” value ([4]; ref [47],[48],[49]) is given as “very low” and the “Bioactivity: Antioxidant” value [5] is given as “Antioxidant”. The “Bioactivity: Anti-inflammatory” value [6] was “Anti-inflammatory” and the “in vivo anti-hypertensive effect” value [7] was “anti-hypertensive effect”.
For CC[C@H](C)[C@H](N)C(=O)N1CCC[C@H]1C(=O)N1CCC[C@H]1C(=O)O [IPP], the IC50 [8] was 763 ± 18.9 µM, the IC50 [9] was 765 ± 15 µM and the IC50 [10] was 169 ± 2.2 µM.
